The METLIN SMRT retention time set (Domingo-Almenara et al. 2019)

Experiment: gradient 5% acetonitrile 3 min, to 50% in 2 min, to 85% in 15 min, held 3 min, 100 µL/min
Conditions: column: Zorbax Extend-C18 2.1 x 50 mm; eluents: water / acetonitrile, 0.1% formic acid
Summary of the method: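 Mixtures of ~100 pure standards were chromatographed on a Zorbax Extend-C18 column (2.1 × 50 mm, 1.8 μm) at 100 μL/min using water and acetonitrile, each with 0.1% formic acid. Detection used a quadrupole time-of-flight mass spectrometer in positive and negative ionization mode, and data collection spanned 3 months. Retention time was obtained from adduct peaks picked computationally and each checked manually.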

Row | SMILES | RP-LC retention time
1 | O=C(CCc1c[nH]c2ccccc12)N1CCc2cc(-c3ccno3)ccc21 | 984 s
2 | Cc1ccc(CNC(=O)C2(C)Cn3nc(C(=O)NC4CCCCC4)cc3C(=O)N2C)cc1 (stereo not drawn) | 800 s
3 | O=C(Cn1cnc(-c2cccs2)cc1=O)NCCOc1ccc(-c2ccco2)nn1 | 583 s
4 | CCn1ncc(N2CCCC(CC(=O)N3CCSCC3)C2)cc1=O (stereo not drawn) | 684 s
5 | CC1CCCC(NC(=O)CCn2cnc3onc(-c4ccc(F)cc4)c3c2=O)C1C (stereo not drawn) | 1050 s
6 | N=C(N)SCCc1ccc(OCc2ccc([N+](=O)[O-])cc2)cc1 | 787 s
7 | CCOC(=O)c1sc(NC(=O)c2ccco2)nc1-c1ccccc1 | 899 s
8 | Cc1ccccc1C(=O)NCc1ccc2c(c1)ncn2C | 576 s
9 | O=c1ccc(-c2ccccc2)nn1Cc1nc(-c2cccc(Cl)c2)no1 | 1100 s
10 | COc1cccc(-c2cn3ccn(-c4ccccc4)c(=O)c3n2)c1 | 773 s
11 | Cc1nn(-c2ccccc2)c(C)c1S(=O)(=O)N1CCC(C(=O)NCc2ccccc2Cl)CC1 | 963 s
12 | Cc1ccc(-n2ncc3c(=O)n(Cc4nc(-c5cccc(C(F)(F)F)c5)no4)cnc32)cc1 | 1180 s
13 | O=C(NCC1(CO)CC1)C(=O)Nc1cccc(N2CCCCC2=O)c1 | 610 s
14 | O=C(c1cccc(Cl)c1)N1CCC2(CC1)N=C(c1cccc(Br)c1)NO2 | 970 s
15 | COc1cccc(CNC(=O)NCCc2nc3cccnc3n2C2CCCC2)c1 | 684 s
16 | O=C(Nc1ccc(F)c(Cl)c1)c1cc(=O)c(OCc2ccc(F)cc2)co1 | 899 s
17 | O=C(C1CCN(S(=O)(=O)c2cc(-c3noc(C4CC4)n3)cs2)CC1)N1CCCCC1 | 931 s
18 | CCOCCOC(=O)C1=C(C)NC2=C(C(=O)C(C(=O)OC)C(C)C2)C1c1cccc(F)c1 (stereo not drawn) | 894 s
19 | COCC(=O)N1CC2CN(S(=O)(=O)c3ccc(OC)cc3)CC(C1)O2 | 934 s
20 | CCc1ccc(S(=O)(=O)N2c3ccccc3CC2c2nnc(C3CCOCC3)o2)cc1 (stereo not drawn) | 948 s
21 | COc1ccc(NC(=O)Cn2c(=O)n(-c3ccccc3)c(=O)c3c2cc(C)n3C)cc1 | 766 s
22 | Cc1ccc(NC(=O)Cn2nc(N3CCSCC3)c3ccccc3c2=O)cc1 | 1170 s

Row | SMILES | RP-LC retention time
23 | CN(C)C[C@@H]1CN(Cc2ccncc2)C[C@H]1NS(=O)(=O)c1ccc(C#N)cc1 | 639 s
24 | O=C(NC1CCCCCCC1)C1CCN(C(=O)c2cccn2-c2cccnc2)CC1 | 797 s
25 | COc1ccccc1-c1ccc(SCC(=O)Nc2ccc3c(c2)OCCO3)nn1 | 792 s
26 | C=CCN1C(=O)COc2ccc(-c3nc(NC(=O)c4cc(OC)c(OC)c(OC)c4)sc3C)cc21 | 1050 s
27 | COc1ccc(N2CCN(C(=O)C3CCN(S(=O)(=O)c4cn(C(C)C)cn4)CC3)CC2)cc1 | 706 s
28 | CC(NC(=O)c1nnc(-c2ccc(S(=O)(=O)N(C)C)cc2)o1)c1ccccn1 (stereo not drawn) | 683 s
29 | Cc1cccc(NC(=O)CSc2nnc(NC(=O)CN(C)S(C)(=O)=O)s2)c1C | 618 s
30 | CCOc1ccc(NS(=O)(=O)c2cc(-c3c(CC)noc3NC(C)=O)ccc2OC)cc1 | 791 s
31 | CC(C)n1ccc(-c2nnc(NC(=O)COc3ccc(Cl)cc3Cl)o2)n1 | 793 s
32 | COc1ccc(-c2nnc(-c3ccccc3)o2)cc1S(=O)(=O)NCC(=O)O | 703 s
33 | CCn1nc(CNC(=O)c2ccc(F)cc2)c2ccccc21 | 839 s
34 | Cn1cc(S(=O)(=O)N2CCCCC2)cc1C(=O)NC1CCCCC1 | 953 s
35 | CSc1ccc(NC(=O)NC2CCN(c3ccc(F)cc3)C2=O)cc1 (stereo not drawn) | 847 s
36 | COc1ccc(-n2nc(SCC(=O)Nc3ccc(Cl)cc3)ccc2=O)cc1 | 629 s
37 | COc1ccc(-c2ncc3c(n2)CCN(S(=O)(=O)c2cccc4cccnc24)C3)cc1 | 935 s
38 | Cc1ccc(CN2C(=O)NC3(CCCN(C(=O)c4ccc5c(c4)OCO5)C3)C2=O)cc1 (stereo not drawn) | 819 s
39 | O=C(NCc1ccc(F)cc1)NC1CCN(C(=O)N2C[C@H]3C[C@H](C2)[C@H]2CCCC(=O)N2C3)CC1 | 658 s
40 | COc1cc(CNC(=O)c2ccc(Cc3c(C)noc3C)o2)cc(OC)c1OC | 744 s
41 | COc1ccc(NC(=O)N2CCCC(C)(C(=O)NCc3cccc(OC)c3)C2)cc1 (stereo not drawn) | 792 s
42 | Cc1nc(-c2csc(S(=O)(=O)N3CCC(C(=O)N4CCc5ccccc54)CC3)c2)no1 | 595 s
43 | COc1ccc(Cl)cc1NC(=O)C1CCN(S(C)(=O)=O)c2cc(C)ccc2O1 (stereo not drawn) | 1110 s
44 | CC1CCN(C(=O)c2cn(CC3CCCO3)cc3c(=O)n(-c4ccccc4)nc2-3)CC1 (stereo not drawn) | 766 s

Row | SMILES | RP-LC retention time
45 | O=C(Cn1nc2c(cc1=O)CCCCC2)NCCc1nc(-c2ccccc2)cs1 | 843 s
46 | CCCn1c(=O)sc2cc(S(=O)(=O)N3CCC(C(=O)Nc4ccccc4OC)CC3)ccc21 | 1000 s
47 | Cc1cc(F)ccc1NC(=O)c1cc(C2CC2)n2nccc2n1 | 1030 s
48 | CCn1c(C)c(CCC(=O)NCC2CCCO2)c(=O)n2nc(-c3ccccc3)nc12 (stereo not drawn) | 691 s
49 | Cc1ccc2[nH]cc(CCNC(=O)Nc3ccc(Cl)cc3)c2c1 | 962 s
50 | CNC(=O)c1nc(C(=O)NCCc2ccc(Cl)cc2)cs1 | 771 s
51 | CCOC(=O)c1cc(C)nc2c1c(=O)n(Cc1ccc(OC)cc1)c(=O)n2C | 1020 s
52 | O=C(Nc1ccc2nc3n(c(=O)c2c1)CCCCC3)C(=O)N1CCc2ccccc21 | 889 s
53 | COc1ccc(-c2nnc(N3CCC(C(=O)NCc4cccs4)CC3)o2)cc1 | 767 s
54 | CCN1C(=O)CC[C@]2(CNC(=O)c3ccc(OC)nc3)CCC[C@@H]12 | 671 s
55 | Cc1nc(-c2noc(-c3ccc(F)cc3)n2)cn1CC(=O)Nc1ccc2c(c1)CCC2 | 966 s
56 | O=C(CSc1ccc(F)cc1)Nc1nnc(COc2ccccc2)o1 | 790 s
57 | O=C(Cn1cnc2nc3c(cc2c1=O)CCCC3)Nc1ccc(Br)cc1F | 791 s
58 | O=C(C1CC(=O)N(c2n[nH]c3ccccc23)C1)N1CCN(c2ccc(Cl)cc2)CC1 (stereo not drawn) | 799 s
59 | COc1ccc(OCc2nc(-c3ccc4c(c3)oc(=O)n4C(C)C)no2)cc1 | 1110 s
60 | CC(C)CCNC(=O)CN1C(=O)C2CCCCN2c2ccc(C(=O)N(C)C)cc21 (stereo not drawn) | 745 s
61 | CCn1c(=O)c(N2CCC(C(=O)NCCCN3CCCC(C)C3)CC2)nc2cccnc21 (stereo not drawn) | 640 s
62 | NC(=O)c1ccc2c(c1)CCCN2C(=O)c1ccc(Cl)cc1 | 704 s
63 | Cc1[nH]c2ccccc2c1C(=O)C(=O)NCCn1ccc2ccccc21 | 844 s
64 | CCc1ccc(CNC(=O)Cn2cc(-c3nnco3)c3ccccc32)cc1 | 866 s
65 | Cc1ccnc(N2CCCC(C(=O)NCCCN3CCCCCC3)C2)n1 (stereo not drawn) | 586 s
66 | CCSc1nnc(NC(=O)c2nn(-c3ccc(F)cc3)cc2OC)s1 | 881 s

Row | SMILES | RP-LC retention time
67 | O=C(Cc1nnc(-c2ccc3ncccc3c2)o1)NC1CCCCCC1 | 807 s
68 | O=C(c1cnccn1)N1CCCC1c1nc(-c2ccc(F)cc2F)no1 (stereo not drawn) | 782 s
69 | O=C(Nc1cc(-c2ccccn2)no1)C1CCCC1 | 765 s
70 | COc1cc(NC(=O)C2CC(=O)N(CCc3c[nH]c4ccc(F)cc34)C2)cc(OC)c1OC (stereo not drawn) | 744 s
71 | CC(NC(=O)CC1CCN(S(=O)(=O)c2ccccc2)CC1)c1ccc2c(c1)OCCO2 (stereo not drawn) | 846 s
72 | Cc1cccc(NC(=O)CN2C(=O)C(C(=O)N3CCCC3)Sc3ccccc32)c1C (stereo not drawn) | 945 s
73 | COc1ccc(NC(=O)c2cccc(N3CCNC(c4ccccc4)C3)n2)cc1 (stereo not drawn) | 665 s
74 | O=C(NCc1cccc(C(F)(F)F)c1)c1cnc(-c2ccccc2)nc1-c1ccncc1 | 934 s
75 | Cc1c(Cl)cccc1NC(=O)N1CCN(CCn2c(C(F)(F)F)nc3cccnc32)CC1 | 666 s
76 | CCn1c(N2CCC(C(=O)NC3CCCCCC3)CC2)cc(=O)n(C)c1=O | 855 s
77 | CCN1CCN(C(=O)Cn2nc(C)c3sc(-c4ccccc4)nc3c2=O)CC1 | 604 s
78 | Nc1nc(SCc2ccccc2Cl)c2[nH]cnc2n1 | 680 s
79 | CCCCOc1ccc(C(=O)NC2(c3nc(C)no3)CCCCC2)cc1 | 1080 s
80 | COC[C@@H]1CN(S(=O)(=O)c2ccc(F)cc2)C[C@H]1c1ccncc1 | 639 s
81 | N#Cc1ccc(C(=O)N2CCC(CCOCC3CC3)CC2)cc1 | 862 s
82 | CC(=O)Nc1ccc(OCC(=O)O)nc1 | 574 s
83 | CCc1ccc(NS(=O)(=O)c2c(C)sc(C)c2-c2n[nH]c(C)c2C)cc1 | 1200 s
84 | Cn1cc(CN2CCCC(COc3ccccc3C(=O)N3CCCCC3)C2)c2ccccc21 (stereo not drawn) | 753 s
85 | CCCN1CCN(CCCNC(=O)C(C)n2c(=O)c(C(F)(F)F)nc3ccccc32)CC1 (stereo not drawn) | 622 s
86 | CCCOc1nc2c(c(=O)n(C)c(=O)n2C)n1C | 788 s
87 | CN(C)C(=O)c1ccc2c(c1)N(CC(=O)NCc1cccc(Cl)c1)C(=O)C1CCCCN21 (stereo not drawn) | 619 s
88 | Cc1cccc(C)c1NC(=O)Cn1ncc2c(c1=O)N(CC1CC1)C(=O)CS2 | 784 s
